Data set [1] has as its system Human Breast Adenocarcinoma Cell Line MDA-MB-231. Kind of data set: Drug cytotoxicity testing (viable cell count, trypan blue exclusion) in MDA-MB-231 cultures. It is filed as cell-based. To be noted: for Tumor Cell Number: compound or drug alone 10^−7 mol/L (100 nM), medium with 5% FBS. As to the method: MDA-MB-231 cells were propagated in MEM culture medium with 2 mM L-glutamine, 10% heat-inactivated fetal bovine serum (FBS) and antibiotics. DU 145 cells were cultured in MEM culture medium containing 2 mM L-glutamine, 1 mM sodium pyruvate, 10% FBS and antibiotics. SKOV-3 cells were cultured in McCoy's 5A culture medium, supplemented with 1,5 mM L-glutamine, 10% FBS and antibiotics. A549 cells were cultured in Ham's F-12 culture medium with 1 mM L-glutamine, 10% FBS and antibiotics.
The cell cultures in cultivation plates were allowed to adhere for 24 hour of incubation. […] The cells were incubated for 2 consecutive days. At the end of the incubation period adherent cells were detached by trypsinization and the number of viable cells was counted using trypan blue exclusion test and a hemocytometer. All data were derived from an average of three determinations each in six replicates. The results were expressed as mean cell number±SE and the differences between control and test series evaluated by means of Student's t-test. The drug cytotoxicity was evaluated based on the extent of cell growth inhibition.
Therefore an average of negative controls was calculated. […] Therefore an average of positive controls was calculated (for each antibiotic).

The subject of data set [2] is rats. To be noted: rat, in vivo, ip, 100 mg/kg.
Protocol: A single dose i.p. toxicity study in rats was carried out. […] The minimal lethal dose is thus above 100 mg/kg body weight for these compounds.

Six molecules from patent US7030158B2, “Therapeutic compounds” (Ardenia Investments Ltd., priority 2002, dated 2006) can be followed below.

`CCCCOC(=O)[C@H](CS(=O)(=O)O)NC(=O)\C=C(C)/C=C/C=C(C)/C=C/C1=C(C)CCCC1(C)C` [II-1e]: the “Tumor Cell Number” value in data set [1] is “(26.0 ± 1.27) × 10^3, cell growth inhibition”.

As to `CC1=C(/C=C/C(C)=C/C=C/C(C)=C\C(=O)N[C@@H](CCS(=O)(=O)O)C(=O)O)C(C)(C)CCC1` [II-3, N-(13-cis-Retinoyl)-L-homocysteic acid], in data set [2], the mortality result is “did not produce mortality”.

For the molecule `CC1=C(/C=C/C(C)=C/C=C/C(C)=C/C(=O)N[C@@H](CS(=O)(=O)O)C(=O)O)C(C)(C)CCC1` [I-1, N-(all-trans-Retinoyl)-L-cysteic acid], the mortality entry in data set [2] is “did not produce mortality”.

Turning to `CC1=C(/C=C/C(C)=C/C=C/C(C)=C/C(=O)N[C@@H](CS(=O)O)C(=O)O)C(C)(C)CCC1` (stereo in doubt) [I-2, N-(all-trans-Retinoyl)-L-cysteinesulfinic acid], in data set [2], the mortality entry is reported as “did not produce mortality”.

On to `CC1=C(/C=C/C(C)=C/C=C/C(C)=C\C(=O)N[C@@H](CS(=O)(=O)O)C(=O)OC(C)C)C(C)(C)CCC1` [II-1c], for which the “Tumor Cell Number” value in data set [1] is 29.0 ± 1.26 × 10^3.

Turning to `COC(=O)[C@H](CCS(=O)(=O)O)NC(=O)/C=C(C)/C=C/C=C(C)/C=C/C1=C(C)CCCC1(C)C` [I-3a], the “cell growth inhibition achieved when increasing the concentration” value in data set [1] (compound (sodium salt) alone, concentration range 10^−9 to 10^−7 M, listed as II-3a) was about 49%.
